≈ marks a conversion by molar mass, not a printed value. Calls of active or inactive are those of the source. The rule behind the calls is not given here. Where a SMILES comes first, the peptide text is derived from it. Bridges are numbered along the chain shown (N, C = ends). [ ]: non-standard residue; d: D form. The star is where a group is joined. X1 = CC[C@H](C)CCCCC(=O)*; Dab = NCC[C@H](N)C(=O)O
What was measured:
[1] = Retention time of compound by RP-HPLC analysis; format: physicochemical
Staphylococcus aureus [2] = assay: Antibacterial activity against Staphylococcus aureus ATCC 25923 incubated for 18 to 24 hrs by broth microdilution method; format: functional; conditions: time 18-24 hrs
Staphylococcus aureus [3] = assay: Antibacterial activity against Staphylococcus aureus ATCC 29213 incubated for 18 to 24 hrs by broth microdilution method; format: functional; conditions: time 18-24 hrs
Staphylococcus aureus [4] = assay: Antibacterial activity against methicillin-resistant Staphylococcus aureus ATCC 33591 incubated for 18 to 24 hrs by broth microdilution method; format: functional; conditions: time 18-24 hrs
[5] = tested on: Staphylococcus epidermidis; assay: Antibacterial activity against Staphylococcus epidermidis ATCC 12228 incubated for 18 to 24 hrs by broth microdilution method; format: functional; conditions: time 18-24 hrs
Enterococcus faecalis = assay: Antibacterial activity against Enterococcus faecalis ATCC 29212 incubated for 18 to 24 hrs by broth microdilution method; format: functional; conditions: time 18-24 hrs
[6] = Hemolytic activity in mouse Red blood cells incubated for 1 hr by absorbance based analysis; format: toxicity, cell-based; conditions: erythrocyte
Staphylococcus aureus [7] = assay: Antibacterial activity against methicillin-resistant Staphylococcus aureus ATCC 33591 incubated for 18 to 24 hrs in presence of 0.5 mg/ml of trypsin by broth microdilution method; format: functional; conditions: time 18-24 hrs
Staphylococcus aureus [8] = assay: Antibacterial activity against methicillin-resistant Staphylococcus aureus ATCC 33591 incubated for 18 to 24 hrs in presence of 1 mg/ml of trypsin by broth microdilution method; format: functional; conditions: time 18-24 hrs
Staphylococcus aureus [9] = assay: Antibacterial activity against methicillin-resistant Staphylococcus aureus ATCC 33591 incubated for 18 to 24 hrs in presence of 2 mg/ml of trypsin by broth microdilution method; format: functional; conditions: time 18-24 hrs
Staphylococcus aureus [10] = assay: Antibacterial activity against methicillin-resistant Staphylococcus aureus ATCC 33591 incubated for 18 to 24 hrs in presence of 0.5 mg/ml of chymotrypsin by broth microdilution method; format: functional; conditions: time 18-24 hrs
Staphylococcus aureus [11] = assay: Antibacterial activity against methicillin-resistant Staphylococcus aureus ATCC 33591 incubated for 18 to 24 hrs in presence of 1 mg/ml of chymotrypsin by broth microdilution method; format: functional; conditions: time 18-24 hrs
Staphylococcus aureus [12] = assay: Antibacterial activity against methicillin-resistant Staphylococcus aureus ATCC 33591 incubated for 18 to 24 hrs in presence of 2 mg/ml of chymotrypsin by broth microdilution method; format: functional; conditions: time 18-24 hrs
Staphylococcus aureus [13] = assay: Antibacterial activity against methicillin-resistant Staphylococcus aureus ATCC 33591 incubated for 18 to 24 hrs in presence of 0.5 mg/ml of pepsin by broth microdilution method; format: functional; conditions: time 18-24 hrs
Staphylococcus aureus [14] = assay: Antibacterial activity against methicillin-resistant Staphylococcus aureus ATCC 33591 incubated for 18 to 24 hrs in presence of 1 mg/ml of pepsin by broth microdilution method; format: functional; conditions: time 18-24 hrs
Staphylococcus aureus [15] = assay: Antibacterial activity against methicillin-resistant Staphylococcus aureus ATCC 33591 incubated for 18 to 24 hrs in presence of 2 mg/ml of pepsin by broth microdilution method; format: functional; conditions: time 18-24 hrs
Staphylococcus aureus [16] = assay: Antibacterial activity against methicillin-resistant Staphylococcus aureus ATCC 33591 assessed as fold change in MIC incubated for 18 to 24 hrs in presence of MgCl2 by broth microdilution method; format: functional; conditions: time 18-24 hrs
Staphylococcus aureus [17] = assay: Antibacterial activity against methicillin-resistant Staphylococcus aureus ATCC 33591 assessed as fold change in MIC incubated for 18 to 24 hrs in presence of NaCl by broth microdilution method; format: functional; conditions: time 18-24 hrs
Staphylococcus aureus [18] = assay: Antibacterial activity against methicillin-resistant Staphylococcus aureus ATCC 33591 assessed as fold change in MIC incubated for 18 to 24 hrs in presence of 10 percent FBS by broth microdilution method; format: functional; conditions: time 18-24 hrs
Staphylococcus aureus [19] = assay: Antibacterial activity against methicillin-resistant Staphylococcus aureus ATCC 33591 assessed as fold change in MIC incubated for 18 to 24 hrs in presence of 10 percent mouse serum by broth microdilution method; format: functional; conditions: time 18-24 hrs
[20] = Stability in mouse serum assessed as half life measured upto 96 hrs by RP-HPLC analysis; format: ADME, cell-free
[21] = Stability in mouse serum assessed as compound degradation measured upto 96 hrs by RP-HPLC analysis; format: ADME, cell-free; conditions: read-out: Drug degradation
Staphylococcus aureus [22] = assay: Antibacterial activity against drug-resistant Staphylococcus aureus ATCC 25923 incubated for 18 to 24 hrs; format: functional; conditions: time 18-24 hrs
Staphylococcus aureus [23] = assay: Antibacterial activity against ciprofloxacin-resistant Staphylococcus aureus ATCC 25923 incubated for 18 to 24 hrs; format: functional; conditions: time 18-24 hrs
Staphylococcus aureus [24] = assay: Antibacterial activity against polymyxin B-resistant Staphylococcus aureus ATCC 25923 incubated for 18 to 24 hrs; format: functional; conditions: time 18-24 hrs
Staphylococcus aureus [25] = assay: Antibacterial activity against gentamicin-resistant Staphylococcus aureus ATCC 25923 incubated for 18 to 24 hrs; format: functional; conditions: time 18-24 hrs
Staphylococcus aureus [26] = assay: Antibacterial activity against drug-resistant methicillin-resistant Staphylococcus aureus ATCC 33591 incubated for 18 to 24 hrs; format: functional; conditions: time 18-24 hrs
Staphylococcus aureus [27] = assay: Antibacterial activity against ciprofloxacin-resistant methicillin-resistant Staphylococcus aureus ATCC 33591 incubated for 18 to 24 hrs; format: functional; conditions: time 18-24 hrs
Staphylococcus aureus [28] = assay: Antibacterial activity against polymyxin B-resistant methicillin-resistant Staphylococcus aureus ATCC 33591 incubated for 18 to 24 hrs; format: functional; conditions: time 18-24 hrs
Staphylococcus aureus [29] = assay: Antibacterial activity against gentamicin-resistant methicillin-resistant Staphylococcus aureus ATCC 33591 incubated for 18 to 24 hrs; format: functional; conditions: time 18-24 hrs
Staphylococcus aureus [30] = assay: Antibacterial activity against methicillin-resistant Staphylococcus aureus ATCC 33591 infected in Balb/c mouse model of skin wound infection assessed as crusted back wound at 10 mg/kg, ip administered thrice at 1, 24 and 48 hrs post-infection measured after 9 days relative to control; format: functional; conditions: time 9 day
Staphylococcus aureus [31] = assay: Antibacterial activity against methicillin-resistant Staphylococcus aureus ATCC 33591 infected in Balb/c mouse model of skin wound infection assessed as wound heal at 10 mg/kg, ip administered thrice at 1, 24 and 48 hrs post-infection measured after 14 days relative to control; format: functional; conditions: time 14 day
Staphylococcus aureus [32] = assay: Induction of drug resistance in Staphylococcus aureus ATCC 25923 at sub-MIC measured after 2 passages; format: functional, organism-based

SMILES	Retention_time [1] [min]	MIC (Staphylococcus aureus [2]) [µM]	MIC (Staphylococcus aureus [3]) [µM]	MIC (Staphylococcus aureus [4]) [µM]	MIC [5] [µM]	MIC (Enterococcus faecalis) [µM]	HC10 [6] [µM]	MIC (Staphylococcus aureus [7]) [µM]	MIC (Staphylococcus aureus [8]) [µM]	MIC (Staphylococcus aureus [9]) [µM]	MIC (Staphylococcus aureus [10]) [µM]	MIC (Staphylococcus aureus [11]) [µM]	MIC (Staphylococcus aureus [12]) [µM]	MIC (Staphylococcus aureus [13]) [µM]	MIC (Staphylococcus aureus [14]) [µM]	MIC (Staphylococcus aureus [15]) [µM]	fold change (FC) (Staphylococcus aureus [16])	fold change (FC) (Staphylococcus aureus [17])	fold change (FC) (Staphylococcus aureus [18])	fold change (FC) (Staphylococcus aureus [19])	also measured
CCCCCCCCCCCC(=O)N[C@@H](CCCNC(=N)N)C(=O)N[C@@H](CCCNC(=N)N)C(=O)N[C@@H](Cc1c[nH]c2ccccc12)C(=O)O	18.643	4 (≈ 2.8 µg/mL)	4 (≈ 2.8 µg/mL)	4 (≈ 2.8 µg/mL)	2 (≈ 1.4 µg/mL)	8 (≈ 5.59 µg/mL)	128	> 128	> 128	> 128	> 128	> 128	> 128	16	32	64	<3	<3	8	4	half-life [20]: 1040 min; metabolised at 96 h [21]: ~100%
CCCCCCCCCCCC(=O)N[C@@H](CCCNC(=N)N)C(=O)N[C@H](CCCNC(=N)N)C(=O)N[C@@H](Cc1c[nH]c2ccccc12)C(=O)O	18.997	4 (≈ 2.8 µg/mL)	4 (≈ 2.8 µg/mL)	4 (≈ 2.8 µg/mL)	2 (≈ 1.4 µg/mL)	8 (≈ 5.59 µg/mL)	128	16	32	32	16	32	32	64	64	64	<3	<3	8	4	–
CN[C@H](CC(C)C)C(=O)N[C@H]1C(=O)N[C@@H](CC(N)=O)C(=O)N[C@H]2C(=O)N[C@H]3C(=O)N[C@H](C(=O)N[C@H](C(=O)O)c4cc(O)cc(O)c4-c4cc3ccc4O)[C@H](O)c3ccc(c(Cl)c3)Oc3cc2cc(c3O[C@@H]2O[C@H](CO)[C@@H](O)[C@H](O)[C@H]2O[C@H]2C[C@](C)(N)[C@H](O)[C@H](C)O2)Oc2ccc(cc2Cl)[C@H]1O [VANCOMYCIN]	–	≤ 0.5	≤ 0.5	≤ 0.5	1 (≈ 1.45 µg/mL)	2 (≈ 2.9 µg/mL)	–	–	–	–	–	–	–	–	–	–	–	–	–	–	–
CCCCCCCCCCCC(=O)N[C@H](CCCNC(=N)N)C(=O)N[C@@H](CCCNC(=N)N)C(=O)N[C@H](Cc1c[nH]c2ccccc12)C(=O)O	19.092	4 (≈ 2.8 µg/mL)	4 (≈ 2.8 µg/mL)	4 (≈ 2.8 µg/mL)	2 (≈ 1.4 µg/mL)	16 (≈ 11.2 µg/mL)	128	8	16	32	8	8	8	4	8	8	<3	<3	8	4	–
CCCCCCCCCCCC(=O)N[C@H](CCCNC(=N)N)C(=O)N[C@H](CCCNC(=N)N)C(=O)N[C@@H](Cc1c[nH]c2ccccc12)C(=O)O	18.527	4 (≈ 2.8 µg/mL)	4 (≈ 2.8 µg/mL)	4 (≈ 2.8 µg/mL)	2 (≈ 1.4 µg/mL)	8 (≈ 5.59 µg/mL)	128	32	32	64	32	64	64	4	8	32	<3	<3	8	8	–
CCCCCCCCCCCC(=O)N[C@H](CCCNC(=N)N)C(=O)N[C@@H](CCCNC(=N)N)C(=O)N[C@@H](Cc1c[nH]c2ccccc12)C(=O)O	19.259	4 (≈ 2.8 µg/mL)	4 (≈ 2.8 µg/mL)	4 (≈ 2.8 µg/mL)	2 (≈ 1.4 µg/mL)	8 (≈ 5.59 µg/mL)	64	64	64	128	16	32	128	8	16	32	<3	<3	8	4	–
CC(C)CCCCC(=O)N[C@@H](CCN)C(=O)N[C@H](C(=O)N[C@@H](CCN)C(=O)N[C@H]1CCNC(=O)[C@H]([C@@H](C)O)NC(=O)[C@H](CCN)NC(=O)[C@H](CCN)NC(=O)[C@H](CC(C)C)NC(=O)[C@@H](Cc2ccccc2)NC(=O)[C@H](CCN)NC1=O)[C@@H](C)O.CC[C@H](C)CCCCC(=O)N[C@@H](CCN)C(=O)N[C@H](C(=O)N[C@@H](CCN)C(=O)N[C@H]1CCNC(=O)[C@H]([C@@H](C)O)NC(=O)[C@H](CCN)NC(=O)[C@H](CCN)NC(=O)[C@H](CC(C)C)NC(=O)[C@@H](Cc2ccccc2)NC(=O)[C@H](CCN)NC1=O)[C@@H](C)O (X1-[Dab]T[Dab][Dab][Dab][dF]L[Dab][Dab]T; lactam 4-C)	–	4	4	16	2	128	–	–	–	–	–	–	–	–	–	–	–	–	–	–	MIC (Staphylococcus aureus [22]): > 128 µM; MIC (Staphylococcus aureus [23]): 0.128 mM; MIC (Staphylococcus aureus [24]): 512 µM; MIC (Staphylococcus aureus [25]): > 128 µM; MIC (Staphylococcus aureus [26]): 128 µM; MIC (Staphylococcus aureus [27]): 0.004 mM; MIC (Staphylococcus aureus [28]): 2050 µM; MIC (Staphylococcus aureus [29]): 128 µM; Activity (Staphylococcus aureus [30]): 100%; Activity (Staphylococcus aureus [31]): 100%
O=C(O)c1cn(C2CC2)c2cc(N3CCNCC3)c(F)cc2c1=O [CIPROFLOXACIN]	–	1 (≈ 0.331 µg/mL)	1 (≈ 0.331 µg/mL)	256 (≈ 84.8 µg/mL)	≤ 0.5	2 (≈ 0.663 µg/mL)	–	–	–	–	–	–	–	–	–	–	–	–	–	–	Activity (Staphylococcus aureus [32]): Active; MIC (Staphylococcus aureus [22]): > 128 µM; MIC (Staphylococcus aureus [23]): 8.19 mM (≈ 2710 µg/mL); MIC (Staphylococcus aureus [24]): > 128 µM; MIC (Staphylococcus aureus [25]): 128 µM (≈ 42.4 µg/mL); MIC (Staphylococcus aureus [26]): > 128 µM; MIC (Staphylococcus aureus [27]): 8.19 mM (≈ 2710 µg/mL); MIC (Staphylococcus aureus [28]): > 128 µM; MIC (Staphylococcus aureus [29]): 128 µM (≈ 42.4 µg/mL)
CCCCCCCCCCCC(=O)N[C@@H](CCCNC(=N)N)C(=O)N[C@@H](CCCNC(=N)N)C(=O)N[C@H](Cc1c[nH]c2ccccc12)C(=O)O	18.476	4 (≈ 2.8 µg/mL)	4 (≈ 2.8 µg/mL)	4 (≈ 2.8 µg/mL)	2 (≈ 1.4 µg/mL)	16 (≈ 11.2 µg/mL)	128	> 128	> 128	> 128	> 128	> 128	> 128	16	128	128	<3	<3	8	4	–
CCCCCCCCCCCC(=O)N[C@@H](CCCNC(=N)N)C(=O)N[C@H](CCCNC(=N)N)C(=O)N[C@H](Cc1c[nH]c2ccccc12)C(=O)O	19.303	4 (≈ 2.8 µg/mL)	4 (≈ 2.8 µg/mL)	4 (≈ 2.8 µg/mL)	2 (≈ 1.4 µg/mL)	16 (≈ 11.2 µg/mL)	64	128	> 128	> 128	8	8	32	4	8	16	<3	<3	8	4	–
